Common to all, as to format: cell-based
Series [1] in a line: MTT drug cytotoxicity assay in MRC5 cells. To be noted: human, read-out: MTT assay Percent of control. On the procedure: Human diploid embryonic lung (MRC5) cells were grown in 35 mm wells of 6-well tissue culture plates. Subconfluent cell monolayers were rinsed with phosphate-buffered saline (PBS) and were exposed to 0.5 ml/well of HCMV (strain AD169) suspension for 1.5 hours at 37° C. The virus suspension was diluted in MEM+2% fetal bovine serum (FBS) to yield a multipicity of infection (MOI) of approximately 0.1 plaque forming units (PFU)/cell. Following the virus adsorption period, the inocula were removed and infected cell layers were rinsed with PBS. Aliquiots (2.0 ml) of each test drug concentration (dissolved in MEM supplemented with 2% FBS) were dispensed into triplicate cell cultures: two virus-infected cultures and one uninfected cytotoxicity control culture (exposed to medium without virus for 1.5 hours). Untreated virus-infected control cultures and untreated, uninfected cell control cultures were fed with medium alone. The culture plates were incubated at 37° C. in a humidified atmosphere of 2% CO2 in air.
All cell culture fluids were replaced with fresh drug and medium 48 hours postinfection (p.i.).
Drug cytotoxicity was determined quantitatively by a method based on the reduction of the tetrazolium salt, 3-(4,5-dimethyl-thiazol-2-yl)-2,5-diphenyl tetrazolium bromide (MTT) by mitochondrial enzymes of viable host cells to MTT formazan (T. Mosmann, 1983). Drug cytotoxicity controls and cell controls were treated with MTT (dissolved in culture medium) followed by 20% SDS (in 0.02N HCl) to dissolve the crystals of MTT formazan. The blue color of the MTT formazan was measured spectrophotometrically at 570 nm. Drug cytotoxicity was determined by comparing the absorbance (O.D.) of each drug cytotoxicity control with the mean O.D. of the cell control cultures and expressed as percent of control.
(In general: Tetrazolium assays rely on reduction of a dye to a coloured formazan, in cell work by metabolically active cells.)

Series [2] relates to Varicella-Zoster Virus (VZV) clinical isolate DM625. Briefly: VZV plaque reduction assay. The conditions noted are these: Human alphaherpesvirus 3, 144 h, VZV in HFF; for EC50: minimum concentration required to inhibit plaque formation by 50%, read-out: MIC50. On the procedure:
The compounds of the invention were evaluated for selective activity against varicella zoster virus (VCV) utilizing a plaque reduction assay procedure. The challenge virus was a clinical isolate designated DM625, obtained from Dr. Richard Whitley of the University of Alabama Hospitals, Birmingham, Ala. The virus had been passaged and titrated in cultures of human foreskin fibroblasts (HFF).
(§1) For the plaque reduction assay, sixth to twelfth passage human foreskin fibroblasts were seeded in wells of 12-well tissue culture plates and incubated at 37° C. in a humidified atmosphere containing 2% CO2 in air. Subconfluent HFF were rinsed with MEM and exposed to 0.5 ml/well of a suspension of VZV diluted in MEM+2% FBS for 2 hours at 37° C. Following the virus adsorption period, the inocula were removed and the infected cell layers were rinsed with MEM. Triplicate VZV-infected cell culture wells were treated with 1.0 ml of each concentration of test compound (in MEM+2% FBS). Six untreated virus-infected cell cultures and triplicate untreated uninfected cell cultures were fed with 1.0 ml of MEM+2% FBS to serve as controls. Wells containing uninfected HFF were treated with each concentration of test compound to monitor the test compound cytotoxicity. The 12-well plates were incubated at 37° C. in the CO2 incubator. At 48 hours post-virus infection (p.i.), fluids in all plate wells were replaced with fresh test compound and/or culture medium.
Six days p.i., the VZV plaques were counted (unstained, low magnification).The effect of each concentration of test compound on plaque formation was determined by comparing the mean number of plaques in the replicate test compound-treated cultures with the mean plaque counts of the untreated virus control cultures.
The MIC50 value is the minimum concentration of test Compound required to inhibit plaque formation by 50%.
(Plaques are areas of infected cells; plaque reduction assays count them against a control.)

Series [3] is described as follows: MTT test compound cytotoxicity in human foreskin fibroblasts. To be noted: hff cells, read-out: MTT assay (Percent of control). On the procedure:
as §1
The test compound cytotoxicity control cultures were examined microscopically for gross morphologic changes, then treated with MTT and 30% SDS. The blue color of the MTT formazan was measured spectrophotometrically at 570 nm. Test compound cytotoxicity was determined by comparing the absorbance (O.D.) of each test compound control with the mean O.D. of the cell control cultures and expressed as percent of control.

As usually defined, the inhibition is the share of the control response that was lost under treatment.

Values after ≈ are worked out from the molar mass of the structure shown. Read-outs that look alike come from different tables or passages of the source.

For `Nc1ccn([C@@H]2O[C@H](CO)[C@H]2CO)c(=O)n1` [Example 22, 1-([2'R,3'R,4'S]-3',4'-Bis(hydroxymethyl)-2'-oxetanyl)cytosine], in series [1] (0.32 μg/ml), the viability stood at 84%. In addition, the viability in series [1] (1.0 μg/ml) is 81%. Also, the viability in series [1] (3.2 μg/ml) was 77%. Moreover, in series [1] (10 μg/ml), the viability was 78%. Further, in series [2], 0.032 µM produced 29% inhibition, the inhibition at 0.1 µM came to 86%, 0.32 µM produced 100% inhibition and 1 µM produced 100% inhibition. In series [2], at 3.2 µM the inhibition was 100% and the EC50 was determined as 0.07 mg/L (≈ 0.308 µM). In series [3], the viability at 0.1 µM was 88%, the viability at 0.32 µM was determined as 81%, the viability at 1 µM was found to be 77% and the viability at 3.2 µM was 76%.

Consider `O=c1ccn([C@@H]2O[C@H](CO)[C@H]2CO)c(=O)[nH]1` [Example 23, 1-([2'R,3'R,4'S]-3',4'-Bis(hydroxymethyl)-2'-oxetanyl)uracil], for which the viability in series [1] (10 μg/ml) was 100%; in series [1] (32 μg/ml) it was 100%; in series [1] (100 μg/ml), 98%; in series [1] (320 μg/ml), 100%. Further, 1 µM produced 22% inhibition in series [2]. Further, the inhibition at 3.2 µM in series [2] stood at 22%. In series [2] (10 μM), this molecule had an inhibition at 10 µM of 34%. The molecule further returned an inhibition at 32 µM in series [2] (32 μM) of 84%. In series [2] (100 μM), this molecule returned an inhibition at 100 µM of 100%. For the same molecule, in series [2] (320 μM), at 320 µM the inhibition was 100%. In addition, the EC50 in series [2] stood at 19.4 mg/L (≈ 85 µM). Besides, the viability at 3.2 µM in series [3] turned out to be 82%. In series [3] (10 μM), the viability at 10 µM amounted to 84%. Also, the viability at 32 µM in series [3] (32 μM) was 87%. In series [3] (100 μM), the viability at 100 µM came out at 88%. Moreover, the viability at 320 µM in series [3] (320 μM) came to 82%.

For `O=c1[nH]c(=O)n([C@@H]2O[C@H](CO)[C@H]2CO)cc1C=CBr` [Example 44, 1-([2'R, 3'R, 4'S]-3',4'-Bis(hydroxymethyl)-2'-oxetanyl)-5-(2-bromo-1-vinyl)uracil], in series [2] (0.0001 μM), the inhibition at 0.0001 µM came out at 3%. The same molecule yielded an inhibition at 0.00032 µM in series [2] (0.00032 μM) of 6%. In series [2] (0.001 μM), this molecule displayed an inhibition at 0.001 µM of 4%. Also, the inhibition at 0.0032 µM in series [2] (0.0032 μM) worked out at 16%. The molecule also yielded an inhibition at 0.01 µM in series [2] (0.01 μM) of 54%. In series [2], this molecule showed an inhibition at 0.032 µM of 97%, an inhibition at 0.1 µM of 98%, an inhibition at 0.32 µM of 99% and an inhibition at 1 µM of 99%. Also, in series [2], the inhibition at 3.2 µM was determined as 100% and the EC50 was determined as 0.0032 mg/L (≈ 0.00961 µM). In series [3] (0.0001 μM), the viability at 0.0001 µM worked out at 99%. In addition, the viability at 0.00032 µM in series [3] (0.00032 μM) came to 98%. Besides, the viability at 0.001 µM in series [3] (0.001 μM) is 93%. Also, the viability at 0.0032 µM in series [3] (0.0032 μM) was 100%. Besides, the viability at 0.01 µM in series [3] (0.01 μM) turned out to be 97%. In addition, in series [3] (0.032 μM), the viability at 0.032 µM turned out to be 94%. In series [3], the viability at 0.1 µM worked out at 92%, the viability at 0.32 µM was found to be 92%, the viability at 1 µM is 100% and the viability at 3.2 µM came to 100%.
